Active and inactive are the calls of the source.
How the values were obtained:
[1] = biological target: Lysine-specific demethylase 4C (Homo sapiens, UniProt Q9H3R0); test: inhibition of JMJD2C H3K9me3 demethylation – biochemical, DELFIA europium, cherry-picked samples, dose response (AID 488835); assay type: functional
[2] = biological target: T1, Hepatocyte nuclear factor 4-alpha (Homo sapiens, UniProt P41235); assay type: functional, cell-based;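 note: biochemical luminescence-based dose-response counterscreen measuring inhibition of HNF4 dimerization, run alongside a screen for blockers of ABHD5–perilipin-5 interaction; split luciferase complementation of HNF4 fusion proteins in cell lysate measuring dimerization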
T1 sequence (P41235 whole entry): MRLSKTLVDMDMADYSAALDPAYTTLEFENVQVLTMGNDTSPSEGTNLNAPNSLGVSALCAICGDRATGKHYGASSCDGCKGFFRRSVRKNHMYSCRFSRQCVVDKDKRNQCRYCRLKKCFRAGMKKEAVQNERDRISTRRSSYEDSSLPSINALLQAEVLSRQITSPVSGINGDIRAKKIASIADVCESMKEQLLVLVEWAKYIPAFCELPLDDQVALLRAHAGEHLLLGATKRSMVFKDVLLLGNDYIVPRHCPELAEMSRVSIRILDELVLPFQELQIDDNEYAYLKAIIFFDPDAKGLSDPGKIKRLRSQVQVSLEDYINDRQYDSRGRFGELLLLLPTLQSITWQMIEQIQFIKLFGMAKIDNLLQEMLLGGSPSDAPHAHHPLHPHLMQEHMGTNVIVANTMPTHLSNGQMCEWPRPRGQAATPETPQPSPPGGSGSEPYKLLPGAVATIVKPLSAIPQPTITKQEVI

[3] = biological target: T2, Calpain-2 catalytic subunit (Sus scrofa, UniProt P43367); test: m-calpain protease blockers, concentration series – biochemical, fluorogenic peptide substrate, dose response (AID 1420); assay type: functional
T2 sequence (P43367 whole entry): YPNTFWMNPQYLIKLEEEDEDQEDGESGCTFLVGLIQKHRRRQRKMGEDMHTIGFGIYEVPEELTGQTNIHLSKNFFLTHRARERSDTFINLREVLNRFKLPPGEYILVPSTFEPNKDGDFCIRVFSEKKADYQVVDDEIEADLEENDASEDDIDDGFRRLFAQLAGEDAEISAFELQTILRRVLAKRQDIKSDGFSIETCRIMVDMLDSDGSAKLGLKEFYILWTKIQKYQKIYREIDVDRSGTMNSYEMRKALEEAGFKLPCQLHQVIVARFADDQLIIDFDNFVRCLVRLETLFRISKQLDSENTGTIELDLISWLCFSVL

[4] = biological target: Alkaline phosphatase, placental type (Homo sapiens, UniProt P05187); test: human placental alkaline phosphatase inhibition – biochemical, luminescence, confirmation (AID 1512); assay type: functional
Beta-galactosidase = Beta-galactosidase (Escherichia coli, UniProt Q8VNN2); assay type: functional
Mu-type opioid receptor = Mu-type opioid receptor (Homo sapiens, UniProt P35372); test: HTS Image-Based Screen for Agonists of the MOR Receptor. [Related pubchem assays (depositor defined):AID1777, AID1785, AID1786, AID2133]; assay type: functional;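 note: imaging of beta-arrestin GFP recruitment into spots after receptor activation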
[5] = biological target: T3, Kappa-type opioid receptor (Homo sapiens, UniProt P41145); assay type: functional
T3 sequence (P41145 whole entry): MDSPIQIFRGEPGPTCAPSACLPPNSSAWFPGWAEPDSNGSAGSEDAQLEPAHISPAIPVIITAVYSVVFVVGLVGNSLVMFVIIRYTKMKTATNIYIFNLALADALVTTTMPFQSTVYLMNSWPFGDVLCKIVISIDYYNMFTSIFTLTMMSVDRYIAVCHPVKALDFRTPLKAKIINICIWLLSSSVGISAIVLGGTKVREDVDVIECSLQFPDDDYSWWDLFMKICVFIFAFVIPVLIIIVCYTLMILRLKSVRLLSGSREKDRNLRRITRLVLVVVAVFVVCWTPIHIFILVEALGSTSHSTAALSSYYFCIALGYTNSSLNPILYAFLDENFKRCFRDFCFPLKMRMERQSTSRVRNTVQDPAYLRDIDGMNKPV

[6] = biological target: T4, Delta-type opioid receptor (Homo sapiens, UniProt P41143); test: HTS Image-Based Screen for Agonists of the DOR Receptor. [Related pubchem assays (depositor defined):AID1777, AID1786, AID2133]; assay type: functional
T4 sequence (P41143 whole entry): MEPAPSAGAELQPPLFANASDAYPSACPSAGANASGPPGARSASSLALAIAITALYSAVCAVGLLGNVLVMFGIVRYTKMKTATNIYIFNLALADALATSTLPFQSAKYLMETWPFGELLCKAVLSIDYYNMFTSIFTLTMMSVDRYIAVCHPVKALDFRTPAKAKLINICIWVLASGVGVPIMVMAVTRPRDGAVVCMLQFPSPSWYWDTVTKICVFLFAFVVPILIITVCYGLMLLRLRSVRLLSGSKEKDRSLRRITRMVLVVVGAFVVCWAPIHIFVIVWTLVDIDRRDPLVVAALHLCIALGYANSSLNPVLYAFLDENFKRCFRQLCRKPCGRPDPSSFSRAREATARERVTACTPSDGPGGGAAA

[7] = biological target: T3, Kappa-type opioid receptor; assay type: functional; remark: listed apart in the source
[8] = biological target: T4, Delta-type opioid receptor; test: HTS Image-Based Screen for Antagonists of the DOR Receptor. [Related pubchem assays (depositor defined):AID1777, AID1785, AID1786, AID2133]; assay type: functional
[9] = NIH-3T3 fibroblast cytotoxicity, dose response, cytotoxicity control, cell-based, fluorescence, Alamar Blue, secondary assay (AID 2327); assay type: functional;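 note: NIH-3T3 mouse fibroblasts cultured with fluconazole at 8 µg/mL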
[10] = NIH3T3 cell viability loss – ATP luminescence, mouse fibroblasts, counter-screen, dose response (AID 2010); assay type: functional, cell-based;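 note: cells exposed to compound for about 90 hours before reading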
[11] = Trypanosoma cruzi growth suppression in host cells – NIH3T3 host cells, beta-gal luminescence, confirmation (AID 2044); assay type: functional, cell-based;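 note: intracellular parasites grown in NIH/3T3 mouse fibroblasts as host cells; luminescent beta-galactosidase reporter signal from transgenic T. cruzi replicating inside host cells; inhibitors lower the luminescence signal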
[12] = bead-based luminescence quenchers, dual-tagged ARNT – biochemical, AlphaScreen, cherry-pick, artefact control for ARNT-TACC3 interaction inhibitor project, dose response (AID 651705); assay type: functional;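 note: AlphaScreen bead proximity signal that flags compounds interfering with the detection technology; potency reflects signal decrease which marks the compound as an assay artifact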
[13] = fluconazole-exposed Candida albicans growth modulators – fluorescence, retest, confirmation (AID 2467); assay type: functional, cell-based
H4 = test: Luminescence Cell-Based Dose Response HTS to Identify Activators of 5'UTR Stem-Loop Driven Prion Protein mRNA Translation in H4 Neuroglioblastoma Cells. [Related pubchem assays: 1829 (Project Summary), 1814 (Primary HTS)]; assay type: functional; conditions: Homo sapiens
[14] = Luminescence Cell-Based Dose Response HTS to Identify Activators of Luciferase Translation or Activity in H4 […] Cells. [Related pubchem assays: 1829 (Project Summary), 1814 (Primary HTS)]; assay type: functional
[15] = biological target: T5, Voltage-gated N-type calcium channel alpha-1B subunit/Amyloid beta A4 precursor protein-binding family A member 1 (Homo sapiens, UniProt Q00975+Q02410); assay type: protein assay
T5 sequence (Q00975 whole entry): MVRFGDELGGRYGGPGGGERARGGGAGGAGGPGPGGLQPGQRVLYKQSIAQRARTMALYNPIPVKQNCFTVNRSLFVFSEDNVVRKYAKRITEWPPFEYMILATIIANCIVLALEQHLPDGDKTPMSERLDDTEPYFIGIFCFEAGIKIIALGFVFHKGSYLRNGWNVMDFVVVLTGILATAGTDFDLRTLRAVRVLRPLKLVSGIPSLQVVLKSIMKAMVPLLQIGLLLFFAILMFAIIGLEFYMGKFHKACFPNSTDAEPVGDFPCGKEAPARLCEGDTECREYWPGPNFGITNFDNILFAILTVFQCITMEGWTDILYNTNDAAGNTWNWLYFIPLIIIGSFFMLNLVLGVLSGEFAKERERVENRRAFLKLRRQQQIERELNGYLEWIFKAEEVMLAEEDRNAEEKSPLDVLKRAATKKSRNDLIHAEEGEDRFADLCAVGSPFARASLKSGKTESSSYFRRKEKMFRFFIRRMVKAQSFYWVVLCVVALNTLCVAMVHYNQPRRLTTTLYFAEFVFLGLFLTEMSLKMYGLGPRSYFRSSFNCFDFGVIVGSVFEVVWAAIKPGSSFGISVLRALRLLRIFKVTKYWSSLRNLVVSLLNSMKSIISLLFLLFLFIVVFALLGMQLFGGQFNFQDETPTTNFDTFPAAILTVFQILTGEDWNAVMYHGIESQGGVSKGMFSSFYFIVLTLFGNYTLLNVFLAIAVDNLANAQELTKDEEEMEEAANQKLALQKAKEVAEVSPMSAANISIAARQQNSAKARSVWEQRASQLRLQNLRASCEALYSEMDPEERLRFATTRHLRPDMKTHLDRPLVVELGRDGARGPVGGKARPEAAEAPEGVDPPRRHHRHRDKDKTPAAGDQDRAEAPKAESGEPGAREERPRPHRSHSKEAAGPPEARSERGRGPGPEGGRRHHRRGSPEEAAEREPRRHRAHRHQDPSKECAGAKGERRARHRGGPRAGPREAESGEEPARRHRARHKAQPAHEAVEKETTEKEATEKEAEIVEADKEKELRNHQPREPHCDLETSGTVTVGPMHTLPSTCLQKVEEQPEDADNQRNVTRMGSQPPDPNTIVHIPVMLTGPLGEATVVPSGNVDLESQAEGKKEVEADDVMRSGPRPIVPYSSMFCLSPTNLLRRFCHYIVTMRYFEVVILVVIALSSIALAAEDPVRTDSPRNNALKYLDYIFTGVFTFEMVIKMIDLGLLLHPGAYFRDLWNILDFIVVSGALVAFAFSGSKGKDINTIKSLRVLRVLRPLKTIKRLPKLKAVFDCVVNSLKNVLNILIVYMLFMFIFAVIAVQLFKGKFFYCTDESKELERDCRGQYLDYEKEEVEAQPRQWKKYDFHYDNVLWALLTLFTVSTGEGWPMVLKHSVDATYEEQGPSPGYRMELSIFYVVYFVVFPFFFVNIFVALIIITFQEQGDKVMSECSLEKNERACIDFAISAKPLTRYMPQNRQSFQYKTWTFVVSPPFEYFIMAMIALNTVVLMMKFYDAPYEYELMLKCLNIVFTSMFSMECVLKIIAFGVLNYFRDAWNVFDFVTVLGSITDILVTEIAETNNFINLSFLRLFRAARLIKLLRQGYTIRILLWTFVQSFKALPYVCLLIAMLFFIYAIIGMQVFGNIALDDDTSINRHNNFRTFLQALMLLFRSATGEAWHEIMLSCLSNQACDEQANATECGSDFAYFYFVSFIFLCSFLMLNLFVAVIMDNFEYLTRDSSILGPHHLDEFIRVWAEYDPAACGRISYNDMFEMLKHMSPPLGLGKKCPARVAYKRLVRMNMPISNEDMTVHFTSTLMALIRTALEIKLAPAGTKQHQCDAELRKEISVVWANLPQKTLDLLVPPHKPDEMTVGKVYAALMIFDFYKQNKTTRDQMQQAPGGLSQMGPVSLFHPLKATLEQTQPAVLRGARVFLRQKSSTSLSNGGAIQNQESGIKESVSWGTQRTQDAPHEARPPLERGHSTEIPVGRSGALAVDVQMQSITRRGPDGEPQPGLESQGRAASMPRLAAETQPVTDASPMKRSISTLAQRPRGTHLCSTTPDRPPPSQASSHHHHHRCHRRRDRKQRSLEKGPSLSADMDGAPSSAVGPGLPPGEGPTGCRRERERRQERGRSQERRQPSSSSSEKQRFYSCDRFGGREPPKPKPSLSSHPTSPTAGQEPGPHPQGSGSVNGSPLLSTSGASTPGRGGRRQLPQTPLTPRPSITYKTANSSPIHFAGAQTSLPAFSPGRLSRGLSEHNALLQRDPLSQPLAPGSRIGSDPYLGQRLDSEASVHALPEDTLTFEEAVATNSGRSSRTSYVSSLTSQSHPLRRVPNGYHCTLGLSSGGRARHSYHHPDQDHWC
T5 sequence (Q02410 whole entry): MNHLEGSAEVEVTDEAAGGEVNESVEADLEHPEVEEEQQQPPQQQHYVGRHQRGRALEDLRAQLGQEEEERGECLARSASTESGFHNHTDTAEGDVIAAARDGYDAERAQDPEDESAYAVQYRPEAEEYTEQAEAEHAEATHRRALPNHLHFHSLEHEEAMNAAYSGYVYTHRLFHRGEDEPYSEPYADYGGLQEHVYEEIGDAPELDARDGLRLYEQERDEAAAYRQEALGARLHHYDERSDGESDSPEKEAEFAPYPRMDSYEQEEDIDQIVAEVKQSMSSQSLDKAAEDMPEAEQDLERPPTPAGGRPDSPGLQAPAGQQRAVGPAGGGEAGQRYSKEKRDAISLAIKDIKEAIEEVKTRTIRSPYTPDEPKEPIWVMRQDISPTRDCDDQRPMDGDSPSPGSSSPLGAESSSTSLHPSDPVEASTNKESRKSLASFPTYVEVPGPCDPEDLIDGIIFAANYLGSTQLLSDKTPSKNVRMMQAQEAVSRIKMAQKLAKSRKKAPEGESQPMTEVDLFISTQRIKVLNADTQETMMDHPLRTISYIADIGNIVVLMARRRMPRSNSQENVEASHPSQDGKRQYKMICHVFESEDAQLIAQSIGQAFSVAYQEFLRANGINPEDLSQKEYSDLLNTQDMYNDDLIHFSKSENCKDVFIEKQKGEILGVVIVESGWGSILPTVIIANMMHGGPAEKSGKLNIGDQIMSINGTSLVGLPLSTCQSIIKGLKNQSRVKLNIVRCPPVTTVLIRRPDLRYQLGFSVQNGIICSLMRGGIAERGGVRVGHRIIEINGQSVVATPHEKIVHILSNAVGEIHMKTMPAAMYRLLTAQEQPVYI

[16] = Luminescence Cell-Based Dose Confirmation HTS to Identify Activators of 5'UTR Stem-Loop Driven Alpha-Synuclein mRNA Translation in H4 Neuroglioblastoma Cells. [Related pubchem assays: 1829 (Project Summary), 1814 (Primary HTS)]; assay type: functional
[17] = biological target: T5, Voltage-gated N-type calcium channel alpha-1B subunit/Amyloid beta A4 precursor protein-binding family A member 1; assay type: protein assay; remark: listed apart in the source
[18] = biological target: T6, Tyrosine-protein phosphatase non-receptor type 7 (Homo sapiens, UniProt P35236); test: inhibition of hematopoietic tyrosine phosphatase HePTP – biochemical, set 2, SAR follow-up (AID 449736); assay type: functional
T6 sequence (P35236 whole entry): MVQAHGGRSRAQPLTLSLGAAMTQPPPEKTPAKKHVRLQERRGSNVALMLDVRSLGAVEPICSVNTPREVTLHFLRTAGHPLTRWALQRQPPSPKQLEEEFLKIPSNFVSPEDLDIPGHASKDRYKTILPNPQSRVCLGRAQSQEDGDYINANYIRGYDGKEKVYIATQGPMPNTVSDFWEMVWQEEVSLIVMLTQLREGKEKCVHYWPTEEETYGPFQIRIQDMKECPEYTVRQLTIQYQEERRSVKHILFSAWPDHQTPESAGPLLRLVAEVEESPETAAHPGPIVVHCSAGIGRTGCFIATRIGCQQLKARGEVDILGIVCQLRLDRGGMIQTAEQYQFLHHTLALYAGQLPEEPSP

[19] = viability loss in THP-1 monocytes – THP-1 cells, cytotoxicity control for Vif-APOBEC3G degradation inhibitor project, dose response (AID 1117359); assay type: functional; conditions: THP-1
SUMO-activating enzyme = SUMO-activating enzyme (Homo sapiens, UniProt Q9UBT2); test: blockers of UBC9-mediated SUMO conjugation – biochemical, AlphaScreen, SUMOylation inhibitor project, confirmation (AID 2018); assay type: functional
[20] = biological target: T7, Corticotropin-releasing factor receptor 2/Corticotropin-releasing factor-binding protein (Homo sapiens, UniProt P24387+Q13324); test: Dose Response confirmation of uHTS hits for small molecule antagonists of the CRF-binding protein and CRF-R2 receptor complex.; assay type: functional; conditions: read-out: IC50_Mean
T7 sequence (Q13324 whole entry): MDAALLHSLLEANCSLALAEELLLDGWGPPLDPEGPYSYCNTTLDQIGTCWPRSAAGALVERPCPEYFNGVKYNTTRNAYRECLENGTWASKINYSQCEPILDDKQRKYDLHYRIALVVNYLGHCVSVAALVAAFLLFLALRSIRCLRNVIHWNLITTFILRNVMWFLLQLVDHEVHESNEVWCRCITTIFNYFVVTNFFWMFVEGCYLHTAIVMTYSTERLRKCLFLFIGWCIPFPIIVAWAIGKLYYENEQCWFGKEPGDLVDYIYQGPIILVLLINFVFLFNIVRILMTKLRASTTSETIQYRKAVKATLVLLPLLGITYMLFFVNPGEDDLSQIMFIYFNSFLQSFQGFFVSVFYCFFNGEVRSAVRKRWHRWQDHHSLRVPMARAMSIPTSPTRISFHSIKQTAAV
T7 sequence (P24387 whole entry): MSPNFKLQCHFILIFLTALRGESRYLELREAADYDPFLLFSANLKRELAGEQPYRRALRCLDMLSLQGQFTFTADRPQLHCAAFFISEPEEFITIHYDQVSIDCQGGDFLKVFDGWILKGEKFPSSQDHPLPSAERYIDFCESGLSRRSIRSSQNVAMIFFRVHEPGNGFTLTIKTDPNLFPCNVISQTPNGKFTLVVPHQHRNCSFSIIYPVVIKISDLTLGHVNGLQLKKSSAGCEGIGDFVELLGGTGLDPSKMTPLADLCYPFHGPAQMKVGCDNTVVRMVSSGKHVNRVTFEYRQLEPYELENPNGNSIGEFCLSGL

[21] = biological target: T7, Corticotropin-releasing factor receptor 2/Corticotropin-releasing factor-binding protein; test: activators of CRF receptor 2 with binding protein – uHTS hits, confirmation (AID 602473); assay type: functional; conditions: read-out: EC50_Mean
Trypsin = Trypsin (Sus scrofa, UniProt P00761); test: trypsin protease activity blockade – biochemical, quenched peptide fluorescence, cherry-pick, selectivity assay for Rce1 protease inhibitor project, dose response (AID 488789)
CAAX prenyl protease 2 = biological target: T8, CAAX prenyl protease 2 (Saccharomyces cerevisiae S288c, UniProt Q03530); assay type: biochemical
T8 sequence (Q03530 whole entry): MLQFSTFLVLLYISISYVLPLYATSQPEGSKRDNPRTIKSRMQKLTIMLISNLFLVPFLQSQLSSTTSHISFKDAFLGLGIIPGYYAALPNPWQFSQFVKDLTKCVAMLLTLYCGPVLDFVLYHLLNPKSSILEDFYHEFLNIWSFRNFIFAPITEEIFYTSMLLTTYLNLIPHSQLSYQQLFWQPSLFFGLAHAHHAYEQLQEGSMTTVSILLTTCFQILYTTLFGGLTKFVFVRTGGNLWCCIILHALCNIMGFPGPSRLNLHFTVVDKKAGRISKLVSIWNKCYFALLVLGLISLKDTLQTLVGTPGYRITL

H9c2 = test: cells; assay type: functional, cell-based; conditions: Rattus norvegicus, H9c2, Myocardium;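 note: confirmatory concentration-response retest of ultra-high-throughput screening hits for modulation of myocardial damage; cell death induced by hydrogen peroxide oxidative stress; compound pretreatment for 60 min then peroxide exposure for 2 h; potency is for protecting the cells against peroxide damage rather than for killing them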
Nonstructural protein 1 = Nonstructural protein 1 (Influenza A virus, UniProt Q194T2); assay type: functional, Influenza A virus (A/California/07/2009(H1N1))
[22] = biological target: T9, Microphthalmia-associated transcription factor (Homo sapiens, UniProt O75030); test: reducers of TRPM1 reporter luminescence, concentration series – cell-based, SK-MEL-5, cherry-picked, set 3, MITF inhibitor project, dose response (AID 493073); assay type: functional;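 note: SK-MEL-5 melanoma cells with luciferase driven by the MITF target TRPM1 promoter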
T9 sequence (O75030 whole entry): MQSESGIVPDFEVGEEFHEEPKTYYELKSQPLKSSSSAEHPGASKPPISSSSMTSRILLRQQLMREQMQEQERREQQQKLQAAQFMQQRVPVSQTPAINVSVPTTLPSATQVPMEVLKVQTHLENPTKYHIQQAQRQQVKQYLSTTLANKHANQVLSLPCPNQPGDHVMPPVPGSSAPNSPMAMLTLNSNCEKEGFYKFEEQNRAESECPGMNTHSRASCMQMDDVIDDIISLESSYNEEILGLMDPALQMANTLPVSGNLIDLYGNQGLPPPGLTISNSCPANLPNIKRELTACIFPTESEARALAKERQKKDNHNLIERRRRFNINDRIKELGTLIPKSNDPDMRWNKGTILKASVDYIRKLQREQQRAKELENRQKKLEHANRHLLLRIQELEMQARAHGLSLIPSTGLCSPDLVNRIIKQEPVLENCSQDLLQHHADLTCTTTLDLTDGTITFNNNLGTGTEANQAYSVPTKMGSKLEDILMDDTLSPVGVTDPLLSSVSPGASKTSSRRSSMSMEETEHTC

Sequence of Lysine-specific demethylase 4C (Q9H3R0 whole entry, the tested form may be a part): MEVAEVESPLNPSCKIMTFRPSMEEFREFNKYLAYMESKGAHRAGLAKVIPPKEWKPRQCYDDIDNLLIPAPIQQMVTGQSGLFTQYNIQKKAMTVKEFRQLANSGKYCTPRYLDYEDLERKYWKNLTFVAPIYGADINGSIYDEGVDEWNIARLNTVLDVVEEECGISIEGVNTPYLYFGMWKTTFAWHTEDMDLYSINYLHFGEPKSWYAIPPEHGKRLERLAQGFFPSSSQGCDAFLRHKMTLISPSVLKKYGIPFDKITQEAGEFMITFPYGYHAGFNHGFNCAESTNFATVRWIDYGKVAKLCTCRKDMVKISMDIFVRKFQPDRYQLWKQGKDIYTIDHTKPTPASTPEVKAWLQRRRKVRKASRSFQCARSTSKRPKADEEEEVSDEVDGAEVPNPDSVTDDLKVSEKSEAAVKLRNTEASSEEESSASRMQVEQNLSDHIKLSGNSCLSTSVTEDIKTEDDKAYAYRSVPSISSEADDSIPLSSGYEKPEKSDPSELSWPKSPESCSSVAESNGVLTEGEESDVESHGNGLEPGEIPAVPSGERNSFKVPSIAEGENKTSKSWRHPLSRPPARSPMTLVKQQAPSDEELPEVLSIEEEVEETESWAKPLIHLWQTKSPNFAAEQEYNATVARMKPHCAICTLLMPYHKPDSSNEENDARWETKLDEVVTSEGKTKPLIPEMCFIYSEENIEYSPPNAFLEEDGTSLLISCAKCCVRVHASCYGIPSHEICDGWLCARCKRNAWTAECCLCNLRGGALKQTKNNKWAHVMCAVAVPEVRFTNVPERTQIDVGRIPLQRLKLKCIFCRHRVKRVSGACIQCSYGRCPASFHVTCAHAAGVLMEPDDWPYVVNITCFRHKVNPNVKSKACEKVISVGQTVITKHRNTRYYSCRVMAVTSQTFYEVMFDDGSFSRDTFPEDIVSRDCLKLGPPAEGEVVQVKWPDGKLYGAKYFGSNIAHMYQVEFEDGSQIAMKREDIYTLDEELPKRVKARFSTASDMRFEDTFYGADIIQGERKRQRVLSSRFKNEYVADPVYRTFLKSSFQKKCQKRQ

SMILES: CC1CN(Cc2c(O)ccc3c2oc(=O)c2ccccc23)CC(C)O1 (stereo not drawn)
- AC50 [1]: 0.95 µM (active)
- IC50 [2]: 2.68 µM (active)
- IC50 [3]: 3.06 µM (not active)

SMILES: NC1(C(Cl)(Cl)Cl)Oc2cc(Cl)c(Cl)cc2O1
- IC50 [4]: > 100 µM (inactive)

SMILES: O=S(=O)(Nc1cccc2cccnc12)c1ccc(S(=O)(=O)N2CCCC2)cc1
- EC50 (Beta-galactosidase): > 31.5 µM (inactive)
- EC50 (Mu-type opioid receptor): > 32 µM (inactive)
- IC50 [5]: > 32 µM
- EC50 [6]: > 32 µM (inactive)
- IC50 [7]: 8.52 µM (active)
- IC50 [8]: > 32 µM (inactive)
- EC50 [9]: 17.2 µM (active)
- EC50 [10]: 5.05 µM (active)
- EC50 [11]: 2.33 µM (active)
- AC50 [12]: 110 µM (active)
- EC50 [13]: 4.29 µM (active)

SMILES: NC1=C(c2nc(-c3ccc(Cl)cc3)cs2)C(=O)CN1NC(=O)c1ccc(O)cc1
- EC50 (H4): 94.6 µM (active)
- EC50 [14]: 9.72 µM (active)
- IC50 [15]: 7.51 µM (active)
- EC50 [16]: > 120 µM (not active)
- IC50 [17]: > 50 µM (inactive)

SMILES: COC(=O)c1ccc(CSc2nc(O)c3c(C)c(C(=O)O)sc3n2)cc1
- AC50 [1]: 10.6 µM (active)

SMILES: NS(=O)(=O)c1ccc(NC(=S)NC2CCN(Cc3ccccc3)CC2)cc1
- IC50 [18]: > 100 µM (inactive)

SMILES: Cc1cccc2nc(CSc3nc4ccccc4[nH]3)cn12
- IC50 [4]: > 100 µM (inactive)

SMILES: COc1cc(NC(=O)c2cccs2)ccc1NC(=O)c1cc2ccccc2o1
- IC50 [15]: 11.2 µM (active)
- IC50 [17]: > 50 µM (inactive)

SMILES: COc1ccc(/C=C/c2nnc(NC(=O)CSc3ccc(C)cc3)s2)cc1
- CC50 [19]: > 40 µM (active)
- IC50 (SUMO-activating enzyme): > 100 µM (inactive)

SMILES: O=C(CC1SC(N/N=C/C=C/c2ccccc2)=NC1=O)Nc1ccc(Cl)c(Cl)c1 (stereo not drawn)
- IC50 [20]: > 47.1 µM (inactive)
- EC50 [21]: > 53 µM (inactive)
- IC50 (SUMO-activating enzyme): 34.6 µM (active)

SMILES: NC(=O)c1nsc(C(=O)N(c2ccccc2F)C(C(=O)NCc2ccccc2)c2ccc(O)cc2)c1N (stereo not drawn)
- AC50 (Trypsin): 12 µM (active)
- AC50 (CAAX prenyl protease 2): 13.8 µM (active)
- IC50 (H9c2): > 79 µM (inactive)

SMILES: C/C(=N\NC(=O)C1COc2ccccc2O1)c1ccccn1 (stereo not drawn)
- EC50 (Beta-galactosidase): > 31.5 µM (inactive)
- IC50 [5]: > 32 µM
- IC50 [7]: 6.93 µM (active)
- IC50 (Nonstructural protein 1): 5.62 µM (active)
- AC50 [22]: 4.49 µM (active)

Reference: ChEMBL document CHEMBL1201862, “PubChem BioAssay data set” (2004)
